Laboratory results: US20040110847A1, “Compounds extracted from Sap of Rhus succedanea” (priority 2002, published 2004)
≈ marks a conversion by molar mass, not a printed value.

Experiments:
[1] = tested on: Hela cells; test: Cytotoxicity, acid phosphatase assay, HeLa; assay type: cell-based, Human; conditions: 72 h; concentration of 50% growth inhibition
Description: (§1) (5). Determination of Cytotoxicity. Four human cancer cell lines, HeLa, Huh7, HCT116 and LoVo were used to assess cytotoxicity of the purified compounds. All the cell lines, except Huh7 cells,^14 were purchased from American Type Culture Collection. The cells were cultured in Dulbecco's modified Eagle medium (DMEM) supplemented with 10% fetal calf serum (FCS), 100 units/ml penicillin and […] streptomycin at 37° C. under 5% CO2. Cells were grown in a 96 well plate (2000 cells/well) with or without the addition of compounds 1, 2 or 3 for 72 h. An acid phosphatase assay^14,15 was then used to quantitate the viable cells. Briefly, after the media were aspirated, the cells were washed with phosphate buffer saline (PBS) and then incubated with 100 μl of 0.1M sodium acetate buffer containing 10 mM p-nitrophenyl phosphate and 0.1% Triton X-100, and incubated at 37° C. for 1 h. The reaction was stopped by the addition of 10 μl of 1 N NaOH and coloration of the cells was measured at 410 nm by an ELISA reader. The concentrations of 50% growth inhibition (IC50) were interpolated from dose-dependent growth inhibition curves. The data HeLa, Huh7, HCT116 and LoVo presented were the averages derived from a minimum of triplicate independent experiments.

[2] = tested on: Huh7 cells; test: Cytotoxicity, acid phosphatase assay, Huh7; assay type: cell-based, Human; conditions: 72 h; concentration of 50% growth inhibition
Description: as §1

[3] = tested on: HCT116 cells; test: Cytotoxicity, acid phosphatase assay, HCT116; assay type: cell-based, Human; conditions: 72 h; concentration of 50% growth inhibition
Description: as §1

[4] = tested on: Lovo cells; test: Cytotoxicity, acid phosphatase assay, LoVo; assay type: cell-based, Human; conditions: 72 h; concentration of 50% growth inhibition
Description: as §1

[5] = tested on: four human cancer cell lines (HeLa, Huh7, HCT116, LoVo); test: Cytotoxicity evaluation across four human cancer cell lines; assay type: cell-based
Description: as §1

[6] = Antioxidative potency (AOP), iron/ascorbate system with linoleic acid as substrate; assay type: biochemical; conditions: compared with BHT; FIG. 2; ca. 1, 4, 10 ppm; 37° C., 5 and 30 min
Description: (4). Determination of Antioxidative Activity: The procedure using an iron/ascorbate system reported by Yoon,^9 Chiou,^10 Decker,^11 Tamura,^12 and Sasaki^13 was modified. In a beaker (50 ml), 100 mg of linoleic acid, 1.0 g of Tween 20, and 20 ml of Tris-buffer (pH 7.4, 50 mM) were combined, gently shaken and emulsified with a sonicator for 2 min. An iron/ascorbate solution containing 30 μM FeCl3 and 200 μM ascorbic acid in the Tris-buffer (pH 7.4, 50 mM) was prepared daily. In a series of 1.5-ml microfuge tubes, 0.5 ml of the emulsified linoleic acid, 0.5 ml of the iron/ascorbate solution, and 0.1 ml of methanol containing various concentrations of the three compounds or BHT including 0, 10, 40 and 100 ppm (μg/ml) (resulting in ca. 0, 1, 4 and 10 ppm of concentration after combination) were deposited. Prior to incubation, the tubes were immersed and kept in an ice bath to minimize any reactions. To initiate reaction, the mixtures in the tubes were mixed by hand (gently to prevent foaming) and placed into the wells of a thermal block at 37° C. for 5 and 30 min. After incubation, the produced conjugated diene hydroperoxide (CDHP) contents were determined spectrophotometrically. […] The absorbance (A) at 234 nm of the mixture was measured. […] The percentage of AOP (capacity to inhibit peroxide formation in linoleic acid) was calculated as follows. […]

Compound	IC50 Hela cells [1]	IC50 Huh7 cells [2]	IC50 HCT116 cells [3]	IC50 Lovo cells [4]	cytotoxic activity against four human cancer cell lines [5]	antioxidative potency (AOP) [6]
CCC/C=C/C/C=C\CCCCCCCCCc1cc(O)ccc1O [Compound 2, 10′(Z),13′(E)-heptadecadienylhydroquinone]	4.6 µg/mL (≈ 13.4 µM)	6.0 µg/mL (≈ 17.4 µM)	3.5 µg/mL (≈ 10.2 µM)	5.6 µg/mL (≈ 16.3 µM)	significant cytotoxic activity	close to that of BHT
C/C=C/C=C/C/C=C\CCCCCCCCCc1cc(O)ccc1O [Compound 1, 10′(Z),13′(E),15′(E)-heptadecatrienylhydroquinone]	2.8 µg/mL (≈ 8.17 µM)	3.9 µg/mL (≈ 11.4 µM)	2.0 µg/mL (≈ 5.84 µM)	4.5 µg/mL (≈ 13.1 µM)	significant cytotoxic activity	close to that of BHT
